Data: patent US10927117B2 (BEIGENE SWITZERLAND GMBH, priority 2016, dated 2021)
“Also recorded” adds a separate entry of the source.

Legend:
[1] = Metabolism in human liver microsomes (responsible CYP isoform)
[2] = system: Chronic Lymphocytic Leukemia and Small Lymphocytic Lymphoma (CLL/SLL); assay: Phase 1 trial in patients with CLL/SLL; type: in vivo, human
Method: The dose-escalation component of the trail tested total daily doses between 40 mg and 320 mg, and the ongoing dose-expansion component is testing doses of 160 mg twice a day (BID) or 320 mg once a day (QD). As of Mar. 31, 2017, 69 patients with CLL or SLL (18 TN, […]) were enrolled in the study.

[3] = system: Waldenstrom's Macroglobulinemia (WM); assay: Phase 1 trial in patients with Waldenstrom's Macroglobulinemia (WM); type: in vivo, human
Method: The dose-escalation component of the trail tested total daily doses ranging from 40 mg to 320 mg, and the ongoing dose-expansion phase is testing doses of 160 mg twice a day (BID) or 320 mg once a day (QD). As of Mar. 31, 2017, 48 patients with WM were enrolled in the study. Responses were determined according to the modified Sixth International Workshop on WM (IWWM) criteria.

[4] = system: rituximab-induced antigen-dependent cell-mediated cytotoxicity (ADCC); assay: Rituximab-induced ADCC inhibition; type: cell-based
[5] = system: TMD8 cells (ABC type diffuse large B-cell lymphoma cell line); assay: Tumor cell proliferation, CellTiter-Glo, TMD-8; type: cell-based; conditions: Homo sapiens, TMD8, 144 h; TMD-8 cell line, DLBCL(ABC); 6-day exposure; mean of 3 independent assays; read-out: Potency IC50
Method: (§1) 3 MCL cell lines (Rec-1, Mino and JEKO-1) and an ABC type diffuse large B-cell lymphoma cell line (TMD8) were used in this study. Cell lines were maintained in RPMI-1640 supplemented with 10% fetal bovine serum/FBS (Thermo Scientific); 100 units/ml penicillin (Gibco) and 0.1 mg/ml streptomycin (Gibco) and kept at 37° C. in a humidified atmosphere of 5% CO2 in air. Cell lines were reinstated from frozen stocks that were laid down within 30 passages from the original cells purchased.
(§2) The growth-inhibitory activity of compounds in Rec-1, Mino, JEKO-1 and TMD-8 cells was determined using CellTiter-Glo luminescent cell viability assay (Promega). The number of cells seeded per well of a 96-well plate was optimized for each cell line to ensure logarithmic growth over 6 days treatment period. Cells were treated in triplicate with a 10-point dilution series. […] Mixture was mixed on an orbital shaker for 2 minutes to allow cell lysis, followed by 10 minutes incubation at room temperature to allow development and stabilization of luminescent signal, which corresponded to quantity of ATP and thus the quantity of metabolically active cells. Luminescent signal was measured using PHERAstar FS reader (BMG Labtech). IC50 values for cell viability were determined with GraphPad Prism software and were the mean of 3 independent assays.

[6] = Pharmacokinetics in rats (LC-MS/MS); type: in vivo, Sprague-Dawley rats
[7] = system: Mino cells (MCL cell line); assay: Tumor cell proliferation, CellTiter-Glo, Mino; type: cell-based; conditions: Homo sapiens, 144 h, 6-day exposure, mean of 3 independent assays, read-out: Potency IC50
Method: as §1, §2

[8] = Physical and long term stability test; type: physicochemical
[9] = CLL/SLL, adverse event of interest
[10] = 25° C./60% RH for up to 24 months
[11] = 40° C./75% RH for up to 6 months

**Q.** Which “major CYP isoform responsible for the metabolism” value [1] does the source give for C=CC(=O)N1CCC([C@@H]2CCNc3c(C(N)=O)c(-c4ccc(Oc5ccccc5)cc4)nn32)CC1 [Compound 1, (S)-7-(1-acryloylpiperidin-4-yl)-2-(4-phenoxyphenyl)-4,5,6,7-tetra-hydropyrazolo[1,5-a]pyrimidine-3-carboxamide] here?
**A.** CYP3A

**Q.** And the AE arthralgia ([2]; CLL/SLL)?
**A.** 12%

**Q.** What about the AE cough ([2]; CLL/SLL) of the same compound?
**A.** 23%

**Q.** And the AE diarrhea ([2]; CLL/SLL)?
**A.** 22%

**Q.** What about the AE fatigue ([2]; CLL/SLL) of the same compound?
**A.** 29%

**Q.** And the AE headache ([2]; CLL/SLL)?
**A.** 19%

**Q.** What about the AE hematuria ([2]; CLL/SLL) of the same compound?
**A.** 15%

**Q.** What about the AE muscle spasms ([2]; CLL/SLL) of the same compound?
**A.** 12%

**Q.** And the AE nausea ([2]; CLL/SLL)?
**A.** 13%

**Q.** And the AE rash ([2]; CLL/SLL)?
**A.** 13%

**Q.** And the “AE upper respiratory tract infection” value ([2]; CLL/SLL)?
**A.** 28%

**Q.** And the “AE urinary tract infection” value ([2]; CLL/SLL)?
**A.** 12%

**Q.** And the “number of serious AEs (SAEs)” value ([2]; CLL/SLL)?
**A.** 18

**Q.** What about the “patients with serious AEs” value ([2]; CLL/SLL) of the same compound?
**A.** 13

**Q.** And the “overall response rate (ORR)” value ([2]; CLL/SLL, 66 evaluable patients, median follow-up 10.5 months)?
**A.** 94%

**Q.** What about the “PRs with lymphocytosis (PR-Ls)” value ([2]; CLL/SLL, 66 patients) of the same compound?
**A.** 9%

**Q.** What about the “complete responses (CRs)” value ([2]; CLL/SLL, 66 patients) of the same compound?
**A.** 3%

**Q.** And the “partial responses (PRs)” value ([2]; CLL/SLL, 66 patients)?
**A.** 82%

**Q.** And the “grade 2 atrial fibrillation” value [2, 9]?
**A.** one case

**Q.** And the “grade 2 diarrhea” value [2, 9]?
**A.** one case

**Q.** And the AE petechiae/purpura/contusion ([2]; CLL/SLL, any attribution)?
**A.** 46%

**Q.** And the “patients who discontinued treatment due to an AE” value ([2]; CLL/SLL, grade 2 pleural effusion)?
**A.** one patient

**Q.** What about the treatment discontinuation rate ([2]; CLL/SLL, median follow-up 10.5 months) of the same compound?
**A.** 3%

**Q.** What about the major bleeding event ([2]; CLL/SLL, subcutaneous hemorrhage) of the same compound?
**A.** one case of grade 3 purpura

**Q.** And the CRs ([2]; R/R CLL/SLL, 50 patients)?
**A.** 2%

**Q.** And the PR-Ls ([2]; R/R CLL/SLL, 50 patients)?
**A.** 8%

**Q.** And the PRs ([2]; R/R CLL/SLL, 50 patients)?
**A.** 82%

**Q.** And the stable disease ([2]; R/R CLL/SLL, 50 patients)?
**A.** 6%

**Q.** And the ORR ([2]; R/R CLL/SLL, 50 patients, median follow-up 14.0 months)?
**A.** 92%

**Q.** And the CRs ([2]; TN CLL/SLL, 16 patients)?
**A.** 6%

**Q.** What about the PR-Ls ([2]; TN CLL/SLL, 16 patients) of the same compound?
**A.** 13%

**Q.** And the PRs ([2]; TN CLL/SLL, 16 patients)?
**A.** 81%

**Q.** What about the ORR ([2]; TN CLL/SLL, 16 patients, median follow-up 7.6 months) of the same compound?
**A.** 100%

**Q.** And the “discontinuation for Compound 1-related toxicity” value [3]?
**A.** no discontinuation

**Q.** What about the “events leading to treatment discontinuation” value [3] of the same compound?
**A.** Three events

**Q.** And the “serious AEs assessed to be possibly related” value [3]?
**A.** Five

**Q.** What about the major response rate ([3]; 42 evaluable patients) of the same compound?
**A.** 76%

**Q.** What about the partial responses ([3]; 42 evaluable patients) of the same compound?
**A.** 33%

**Q.** What about the “overall response rate (ORR)” value ([3]; 42 evaluable patients, median follow-up 12.3 months) of the same compound?
**A.** 90%

**Q.** What about the AE anemia ([3]; 48 patients) of the same compound?
**A.** 15%

**Q.** And the AE constipation ([3]; 48 patients)?
**A.** 25%

**Q.** What about the AE cough ([3]; 48 patients) of the same compound?
**A.** 15%

**Q.** And the AE diarrhea ([3]; 48 patients)?
**A.** 19%

**Q.** What about the AE epistaxis ([3]; 48 patients) of the same compound?
**A.** 19%

**Q.** What about the AE headache ([3]; 48 patients) of the same compound?
**A.** 15%

**Q.** And the AE nausea ([3]; 48 patients)?
**A.** 17%

**Q.** What about the AE neutropenia ([3]; 48 patients) of the same compound?
**A.** 13%

**Q.** What about the AE rash ([3]; 48 patients) of the same compound?
**A.** 13%

**Q.** What about the “AE upper respiratory tract infection” value ([3]; 48 patients) of the same compound?
**A.** 31%

**Q.** And the “grade 3 or 4 anemia” value ([3]; 48 patients)?
**A.** 8%

**Q.** What about the “grade 3 or 4 diarrhea” value ([3]; 48 patients) of the same compound?
**A.** 2%

**Q.** What about the “grade 3 or 4 headache” value ([3]; 48 patients) of the same compound?
**A.** 2%

**Q.** And the “grade 3 or 4 neutropenia” value ([3]; 48 patients)?
**A.** 8%

**Q.** And the AE petechiae/purpura/contusion ([3]; 48 patients, any attribution)?
**A.** 35%

**Q.** And the “cases of atrial fibrillation” value ([3]; all grade 1 or 2)?
**A.** three cases

**Q.** And the serious hemorrhage ([3]; hemothorax)?
**A.** one case

**Q.** And the “inhibition of rituximab-induced ADCC compared with ibrutinib” value [4]?
**A.** significantly less inhibition

**Q.** Which IC50 [5] does the source give for C=CC(=O)N1CCC([C@@H]2CCNc3c(C(N)=O)c(-c4ccc(Oc5ccccc5)cc4)nn32)CC1 [Crystalline Form A, (S)-7-(1-acryloylpiperidin-4-yl)-2-(4-phenoxyphenyl)-4,5,6,7-tetra-hydropyrazolo[1,5-a]pyrimidine-3-carboxamide] here?
**A.** 0.54 nM

**Q.** And the “linearity of kinetics over the dose range” value ([6]; female rats)?
**A.** linear

**Q.** And the “accumulation following multiple oral dosing” value ([6]; male and female rats)?
**A.** no statistically significant accumulation

**Q.** What about the linearity of kinetics ([6]; male rats) of the same compound?
**A.** not as good

**Q.** And the absorption ([6]; rats)?
**A.** quickly absorbed

**Q.** What about the oral bioavailability ([6]; rats) of the same compound?
**A.** good oral bioavailability

**Q.** What about the “plasma clearance (CL)” value ([6]; rats) of the same compound?
**A.** high plasma clearance

**Q.** What about the IC50 [7] of the same compound?
**A.** 3.8 nM

**Q.** What about the crystal form change [8, 10] of the same compound?
**A.** no crystal form and optical purity changes; also recorded: no crystal form change

**Q.** What about the optical purity change [8, 10] of the same compound?
**A.** no crystal form and optical purity changes

**Q.** And the “chemical purity (% area) T0” value ([8]; 25° C./60% RH)?
**A.** 99.2%

**Q.** What about the “chemical purity (% area) T12” value ([8]; 25° C./60% RH, T12) of the same compound?
**A.** 99.2%

**Q.** What about the crystal form change [8, 11] of the same compound?
**A.** no crystal form and optical purity changes; also recorded: no crystal form change

**Q.** What about the optical purity change [8, 11] of the same compound?
**A.** no crystal form and optical purity changes

**Q.** And the “chemical purity (% area) T0” value ([8]; 40° C./75% RH)?
**A.** 99.1%

**Q.** And the “chemical purity (% area) T6” value ([8]; 40° C./75% RH, T6)?
**A.** 99.4%

**Q.** And the “crystal form change (XRPD)” value ([8]; 80° C. for two days)?
**A.** no crystal form change
